From patent publication US20260274838A1 (PURDUE RESEARCH FOUNDATION, priority 2023, published 2026)
Entries after “also recorded” stand apart in the source; their conditions may differ.

Assays:
hSTING = biological target: T1, hSTING (Homo sapiens, UniProt Q86WV6); experiment: STING based fluorescence polarization assay (F-c-di-GMP probe displacement); assay type: binding; conditions: 20 μM compound, 50 nM probe, 10 μM STING, 5 minutes; compared to HSD1077
T1 construct: SUMO; made in house; host or cells: E. coli Rosetta 2 (pLysS)
T1 sequence (Q86WV6 whole entry H232R): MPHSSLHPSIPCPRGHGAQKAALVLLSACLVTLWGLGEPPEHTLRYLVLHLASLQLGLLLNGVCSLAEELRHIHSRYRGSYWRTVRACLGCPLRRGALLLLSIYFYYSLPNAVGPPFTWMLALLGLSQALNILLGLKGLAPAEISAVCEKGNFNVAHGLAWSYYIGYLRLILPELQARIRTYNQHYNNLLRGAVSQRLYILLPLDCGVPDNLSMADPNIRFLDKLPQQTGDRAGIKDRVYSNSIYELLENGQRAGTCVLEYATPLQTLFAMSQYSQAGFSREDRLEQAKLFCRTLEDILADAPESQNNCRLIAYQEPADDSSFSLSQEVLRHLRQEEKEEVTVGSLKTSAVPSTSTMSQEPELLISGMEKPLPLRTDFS
Method: As a preliminary screen, 20 μM of compounds and 50 nM of the probe were incubated with 10 μM of STING for 5 minutes prior to evaluation of fluorescence anisotropy.
50 nM of 2′-Fluo-AHC-c-diGMP (Biolog) was incubated with 10 μM hSTING and 20 μM of screening compounds in dimethyl sulfoxide (DMSO) for 5 minutes in 1× Phosphate buffered saline at room temperature. […] Anisotropy was normalized via equating measurements with 0 μM hSTING to zero. […] Anisotropy was converted to a fraction bound by F-c-di-GMP using the following equation: […]
wherein r refers to the anisotropy value at 10 μM hSTING concentration upon compound addition, rfree refers to the anisotropy value of unbound fluorophore, and Q refers to the ratio of fluorescence intensities between bound and free fluorophore.

RAW ISG Blue cells = experiment: Detection of IRF activation in RAW ISG Blue reporter cells (SEAP, QUANTI-Blue); assay type: cell-based, murine
Description: To understand possible modulatory effects of compound HSD1077 on the cGAS-STING axis, the quantification of type 1 interferon expression in-cellulo upon compound HSD1077 treatment, investigated via a commercially available murine macrophage cell line RAW ISG Blue, which express secreted embryonic alkaline phosphatase (SEAP) under the control of an interferon-stimulated gene 54 (ISG54), inducible promoter. Upon the stimulation of pathways, such as cGAS-STING, which activate type 1 interferon production, SEAP would be expressed and can be quantified using a chromogenic detection substrate Quantiblue™. […] Excitedly, concentrations as low as 20 nM caused a noticeable decrease in interferon expression (FIG. 8).
After which, media from each respective well was collected for estimation of IRF activation via SEAP colorimetric assay via QUANTI-blue reagent (Invivogen) as per manufacturer protocols, using a clear 96 well flat bottom plate. 20 μL of the media obtained in each individual well was incubated with 180 μL of QUANTI-Blue™ Solution for 6 hours at 37° C. Absorbance (630 nm) of each well was quantified via Biotek Cytation 5 multi-mode reader.

RAW ISG Blue macrophages = experiment: Interferon-β mRNA levels in RAW cells via qPCR; assay type: cell-based, murine; conditions: pre-treatment 6 hours, then 100 μM cGAMP 3 hours; vs DMSO-treated cells stimulated with cGAMP
Method: FIG. 8B illustrates RAW ISG cells were pre-treated with either compound HSD1077 or compound H-151 as a positive control for 6 hours and subsequently stimulated with 100 μM of cGAMP for 3 hours for induction of Interferon-β. mRNA levels were quantified by RT-PCR. Gene expression was normalized with β-actin. Experiments were performed in two biological replicates. Error bars indicate the error of the mean of two independent experiments.
As a secondary analysis, mRNA levels of murine Interferon-β were also quantified via quantitative PCR (qPCR), upon cGAMP stimulation on RAW macrophages with or without compound HSD1077 pre-treatment.
1×10^6 cells were seeded in 6 well plates and incubated for 24 hours to allow for adherence. […] Cells were subsequently harvested, and RNA extraction was performed via the use of TRIzol reagent (Thermo-fisher). 1 μg of RNA harvested from each sample was used for cDNA synthesis using random hexamers, dNTPs, and superscript II reverse transcriptase (Thermo-fisher). […] The forward and reverse primers for the relative quantification of Interferon-β and β-actin were used as reported in Wiser C, Science Reports, 2020, 10, 1-11 and Wang M, ACS Chemical Biology, 2021, 16, 1663-1670, which are hereby specifically incorporated by reference for its teachings regarding the same.

THP-1 dual cells = experiment: Detection of IRF activation in THP-1 dual reporter cells (Lucia luciferase, QUANTI-Luc), cGAMP stimulation; conditions: then 2'-3' cGAMP 24 hours
Method: Using THP-1 dual cell lines (Invivogen) featuring a luciferase gene under the control of an ISG54 inducible promoter, relative quantifications of type 1 interferon expression could be achieved through luciferase detection upon cGAS-STING pathway induction.
1×10^5 cells were seeded in 96 well plates and incubated for 24 hours. After which, cells were pre-treated with the drug compound for 1 hour, followed by 100 μM of 2′-3′ cGAMP for induction of the cGAS-STING pathway, and incubated for 24 hours. After which, cell suspension from each respective well was collected and for relative quantification of IRF activation via Lucia luciferase based luminescent assay via QUANTI-Luc™ reagent (Invivogen). 10 μL of the cell suspension obtained in each individual well was added to 50 μL of QUANTI-Luc™ Solution. […] Experiments were performed in biological triplicates, with data reported as the mean and standard deviation of 3 data points.

Raw ISG cells = experiment: Western blotting of p-STING and p-IRF3 in Raw ISG cells; assay type: cell-based, murine; conditions: 5 μM for 4 hours, then 100 μM cGAMP 3 hours; vs DMSO+cGAMP

Compound | STING binding (fraction of F-c-di-GMP probe bound, Fbound), in words (hSTING) | further results
7-(1H-pyrazol-4-yl)-8,9,10,11-tetrahydro-3H-imidazo[4,5-a]phenanthridine [Compound 17] | not well tolerated | –
COc1cc2nc(-c3cn[nH]c3)c3c(c2cc1OC)CCCC3 [Compound 2, 2,3-Dimethoxy-6-(1H-pyrazol-4-yl)-7,8,9,10-tetrahydrophenanthridine] | significant decrease in STING binding | –
c1n[nH]cc1-c1nc2ccc3c(c2c2c1CCCC2)OCO3 [Compound 3, 7-(1H-pyrazol-4-yl)-8,9,10,11-tetrahydro-[1,3]dioxolo[4,5-a]phenanthridine] | significant decrease in STING binding | –
Cn1ncc2c3c4c(c(-c5cn[nH]c5)nc3ccc21)CCCC4 [Compound 7, 3-Methyl-7-(1H-pyrazol-4-yl)-8,9,10,11-tetrahydro-3H-pyrazolo[4,3-a]phenanthridine] | poor STING binder | –
CCc1cc(-c2cn[nH]c2)nc2ccc3[nH]ncc3c12 [Compound 9, 9-Ethyl-7-(1H-pyrazol-4-yl)-3H-pyrazolo[4,3-f]quinoline] | reduced STING binding | –
c1n[nH]cc1-c1nc2ccc3[nH]ncc3c2c2c1CCC2 [Compound 10] | reduced STING binding | –
O=C1c2ccccc2C(=O)N1C1CCc2c(c(-c3cn[nH]c3)nc3ccc4[nH]ncc4c23)C1 (stereo not drawn) [Compound 16, 2-(7-(1H-pyrazol-4-yl)-8,9,10,11-tetrahydro-3H-pyrazolo[4,3-a]phenanthridin-9-yl)isoindoline-1,3-dione] | not well tolerated | –
c1cc(-c2nc3ccc4[nH]ncc4c3c3c2CCCC3)n[nH]1 [Compound 19, 7-(1H-pyrazol-3-yl)-8,9,10,11-tetrahydro-3H-pyrazolo[4,3-a]phenanthridine] | significant decrease in STING binding | –
Cn1cc(-c2nc3ccc4[nH]ncc4c3c3c2CCCC3)cn1 [Compound 20, 7-(1-Methyl-1H-pyrazol-4-yl)-8,9,10,11-tetrahydro-3H-pyrazolo[4,3-a]phenanthridine] | reduced binding capabilities | –
CN1CCN(C(=O)c2ccc(-c3nc4ccc5[nH]ncc5c4c4c3CCCC4)cc2)CC1 [Compound 21, (4-methylpiperazin-1-yl) (4-(8,9,10,11-tetrahydro-3H-pyrazolo[4,3-a]phenanthridin-7-yl)phenyl)methanone] | reduced binding capabilities | –
CC(=O)N1CCN(C(=O)c2ccc(-c3nc4ccc5[nH]ncc5c4c4c3CCCC4)cc2)CC1 [Compound 22, 1-(4-(4-(8,9,10,11-tetrahydro-3H-pyrazolo[4,3-a]phenanthridin-7-yl)benzoyl)piperazin-1-yl)ethan-1-one] | reduced binding capabilities | –
CN1CCN(C(=O)c2ccc(-c3nc4ccc5[nH]ncc5c4c4c3CCCCC4)cc2)CC1 [Compound 23] | negatively impacted STING binding | –
CN1CCN(C(=O)c2ccc(-c3nc4ccc5[nH]ncc5c4c4c3CCC4)cc2)CC1 [Compound 24, (4-methylpiperazin-1-yl) (4-(3,8,9,10-tetrahydrocyclopenta[c]pyrazolo[4,3-f]quinolin-7-yl)phenyl)methanone] | negatively impacted STING binding | –
CN1CCN(C(=O)c2ccc(-c3nc4c(F)cc5[nH]ncc5c4c4c3CCCC4)cc2)CC1 [Compound 26, (4-(5-fluoro-8,9,10,11-tetrahydro-3H-pyrazolo[4,3-a]phenanthridin-7-yl)phenyl) (4-methylpiperazin-1-yl)methanone] | negatively affected STING binding | –
CN1CCN(C(=O)c2ccc(-c3nc4ccc5[nH]ncc5c4c4c3CCCC4)c(F)c2)CC1 [Compound 28, (3-fluoro-4-(8,9,10,11-tetrahydro-3H-pyrazolo[4,3-a]phenanthridin-7-yl)phenyl) (4-methylpiperazin-1-yl)methanone] | generally retained STING binding | –
CCn1nc(C)cc1C(=O)Nc1nc2cc(C(N)=O)cc(OC)c2n1C/C=C/Cn1c(NC(=O)c2cc(C)nn2CC)nc2cc(C(N)=O)cc(OCCCN3CCOCC3)c21 [DIABZI-3, reference compound] | high probe displacement | –
c1n[nH]cc1-c1nc2ccc3[nH]ncc3c2c2c1CCCC2 [HSD1077, 7-(1H-pyrazol-4-yl)-8,9,10,11-tetrahydro-3H-pyrazolo[4,3-a]phenanthridine] | – | type 1 interferon production on treatment with compound alone (agonism) (RAW ISG Blue cells; 24 hours, no cGAMP): did not induce type 1 interferon production; also recorded: non-significant changes in interferon expression levels; type 1 interferon expression after pre-treatment and cGAMP induction (RAW ISG Blue cells; pre-treatment (1 μM or lower) 2 hours, then 100 μM 2'-3' cGAMP 24 hours): can suppress type-1 interferon expression; also recorded: dose-dependent attenuation in type 1 interferon expression; also recorded: attenuated expression of type 1 interferon in a dose-dependent manner; concentration causing a noticeable decrease in interferon expression (RAW ISG Blue cells; pre-treatment before cGAMP): ≤ 20 nM; murine Interferon-β mRNA levels (RAW ISG Blue macrophages): dose-dependent reduction in murine Interferon-β levels; type 1 interferon expression after pre-treatment and cGAMP stimulation (THP-1 dual cells): can suppress type-1 interferon expression; also recorded: reduced type 1 interferon expression in a dose-dependent manner; also recorded: attenuated expression of interferon in a dose-dependent manner; phospho-IRF3 level (Raw ISG cells): decreased levels; also recorded: attenuates; phospho-STING level (Raw ISG cells): decreased levels; also recorded: attenuates
(2-fluoro-4-(8,9,10,11-tetrahydro-3H-pyrazolo[4,3-a]phenanthridin-7-yl)phenyl) (4-methylpiperazin-1-yl)methanone [Compound 27] | negatively affected STING binding | –
